Reference: patent publication US20260345798A1, “COMPOUNDS AND METHODS OF USE THEREOF” (Virginia Commonwealth University, priority 2023, published 2026)
Residues, ends and D or L forms follow the SMILES beside them.

What was measured:
MMP-2 and MMP-9 = MMP-2 and MMP-9 mRNA by qPCR, B16 cells; assay type: cell-based; conditions: B16 mouse melanoma cells
Procedure: FIG. 13C is a series of histograms showing the MMP-2 and MMP-9 mRNA fold change in the cells treated as described in FIG. 13A, as determined by qPCR. *: Statistical significance (p<0.05).
(§1) Total cellular RNA was extracted using an RNAeasy kit (Qiagen, Germany) as described previously (8,9). All Taqman probes used in this study were obtained from Applied Biosystems (Applied Biosystems, Foster City, CA). Real time PCR was performed using an ABI ViiA7 fast real-time PCR system (Applied Biosystems, Foster City, CA).

A-375 and C8161.9 cells = assay: Boyden chamber invasion assay, comparison with PDZ1i; assay type: cell-based, human; conditions: 25 μM each
Procedure: (§2) FIG. 11A is a series of photomicrographs taken at 10× magnification showing invasion assays of A-375 cells treated with DMSO vehicle, 25 μM PDZ1i, or 25 μM IVMT-Rx-3, as well as histograms showing quantification of the average percent invasion of three independent experiments±standard deviation. *: Statistical significance (p<0.05).
as §2, with “11B” for “11A”, “C8161.9” for “A-375”, “IVMT-Rx-3 in C8161.9 melanoma cells,” for “IVMT-Rx-3,”
Invasive phenotype was measured using a Boyden Chamber Assay as described previously (6,8,18). Briefly, 25,000 cells were plated on the upper chamber of the trans well in FBS free media and allowed to invade the Matrigel layer towards the bottom chamber supplemented with complete media. Twenty-four hr. after plating, the invaded cells were fixed and counted under a bright field microscope.

MDA-9/Syntenin [1] = molecular target: T1, MDA-9/Syntenin (Homo sapiens, UniProt O00560); assay: Microscale thermophoresis (MST) binding affinity; conditions: His-tagged recombinant MDA-9/Syntenin 175 nM, PBS-T pH 7.4, 25 °C, ± S.E., read-out: dissociation constant (KD)
T1 sequence (O00560 1-298): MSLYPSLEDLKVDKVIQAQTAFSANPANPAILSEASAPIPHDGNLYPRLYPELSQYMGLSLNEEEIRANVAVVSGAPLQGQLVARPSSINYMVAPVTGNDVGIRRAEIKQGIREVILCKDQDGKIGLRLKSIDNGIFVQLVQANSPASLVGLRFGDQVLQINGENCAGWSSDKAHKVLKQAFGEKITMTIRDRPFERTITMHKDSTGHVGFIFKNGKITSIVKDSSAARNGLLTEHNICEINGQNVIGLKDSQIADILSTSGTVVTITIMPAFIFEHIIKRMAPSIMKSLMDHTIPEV
Procedure: FIG. 1C is a binding curve of IVMT-Rx-3 bound to MDA-9/Syntenin. The binding constant Ka was measured from the binding curve generated through a microscale thermophoresis (MST) assay.
Binding affinity was measured using microscale thermophoresis (MST) experiments performed on a Monolith NT. Automated instrument (NanoTemper Technologies GmbH, Munich, Germany). His-tagged MDA-9/Syntenin was first labeled with RED-tris-NTA (λEX-650 nm, λEM=670 nm; Cat #MO-LO18) according to the manufacturer's protocol. Briefly, 700 nM MDA-9 in 100 mM phosphate-buffered saline, pH 7.4, containing 0.05% Tween 20 (PBS-T) was added to an equal volume of 100 nM RED-tris-NTA in PBS-T and the mixture was incubated at room temperature for 30 min, centrifuged at 15,000 g for 10 min at 4 °C, and the supernatant containing the labeled protein was transferred to a new tube for use in affinity measurements. […] After a 10-min incubation, the samples were loaded into premium capillary chips and thermophoretic measurements were performed (25 °C, 27% excitation power, medium MST power, 20 s laser on) to follow changes in normalized fluorescence (Fnorm) at different IVMT-Rx-3 concentrations (FIG. 1C). These changes were analyzed using the standard hyperbolic binding isotherm (SigmaPlot) to obtain the affinity of IVMT-Rx-3 for MDA-9/Syntenin. […]

IL-6, IL-10, IL-16 [2] = assay: IL-6, IL-10, IL-16 mRNA by semiquantitative RT-PCR, murine melanoma cells; assay type: cell-based, mouse; conditions: murine melanoma cells (B16)
Procedure: (§3) FIG. 14 is a series of histograms showing the IL-6, IL-10, and IL-16 mRNA fold change in RNA lysates prepared from A-375, C8161.9, and B16 cells treated with IVMT-Rx-3 at varying concentrations as indicated.
as §1

MDA-9/Syntenin [3] = assay: MDA-9/Syntenin protein expression; assay type: cell-based
[4] = molecular target: PDZ tandem protein Harmonin (Homo sapiens, UniProt Q9Y6N9); assay: Binding to other PDZ domains: Harmonin; conditions: 36% identity to PDZ2 and 31% to PDZ1 of MDA-9/Syntenin
Sequence of PDZ tandem protein Harmonin (Q9Y6N9 whole entry, the tested form may be a part): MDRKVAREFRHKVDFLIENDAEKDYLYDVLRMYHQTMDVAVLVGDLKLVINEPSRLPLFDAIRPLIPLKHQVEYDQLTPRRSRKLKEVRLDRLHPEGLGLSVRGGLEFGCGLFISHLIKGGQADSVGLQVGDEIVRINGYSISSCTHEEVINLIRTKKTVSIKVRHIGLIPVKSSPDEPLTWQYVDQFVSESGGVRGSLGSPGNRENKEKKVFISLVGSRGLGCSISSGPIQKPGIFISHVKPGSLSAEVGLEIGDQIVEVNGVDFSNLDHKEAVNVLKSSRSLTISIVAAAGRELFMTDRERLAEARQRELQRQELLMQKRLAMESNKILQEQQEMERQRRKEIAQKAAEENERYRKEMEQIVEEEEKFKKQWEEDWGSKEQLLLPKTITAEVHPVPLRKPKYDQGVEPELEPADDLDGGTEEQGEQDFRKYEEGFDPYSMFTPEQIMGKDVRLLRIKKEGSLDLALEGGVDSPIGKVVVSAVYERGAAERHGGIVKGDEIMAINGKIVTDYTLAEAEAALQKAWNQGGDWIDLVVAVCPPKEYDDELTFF

IGFBP-2 = IGFBP-2 in blood plasma of B16-injected mice; assay type: in vivo, mouse; conditions: 30 mg/kg I.P., 6 injections
Text: FIG. 6C is a histogram showing the IGFBP-2 expression measured in blood plasma from animals (n=7) in the treatment groups described in FIG. 6A. ****: Statistical significance (p<0.0001).

[5] = tested on: human melanoma cells (established and early passage patient-derived); assay: Proliferation / colony formation of human melanoma cells; assay type: cell-based; conditions: 10 to 50 μM
Text: FIG. 2C is a series of images showing colony formation assays of established human melanoma and patient-derived early passage human melanoma cells treated with IVMT-Rx-3.
FIG. 2D is a series of histograms showing the number of colonies/plate in the colony formation assays described in FIG. 2C. NS: Not statistically significant; Statistically significant p<0.05.
FIG. 2E is a series of histograms showing the number of colonies/plate in colony formation assays of patient-derived early passage human melanoma cells treated with IVMT-Rx-3. NS: Not statistically significant; Statistically significant p<0.05.
The effect of IVMT-Rx-3 on primary normal human epidermal melanocyte cell growth and survival was determined after short term (24 hr., growth assays) (FIG. 2A) and long-term exposure (3-week, clonal assays) (FIG. 2B).

IL-6, IL-10, IL-16 [6] = assay: IL-6, IL-10, IL-16 mRNA by semiquantitative RT-PCR, human melanoma cells; assay type: cell-based; conditions: human melanoma cells (A-375, C8161.9)
Procedure: as §3, §1

With Cc1cc(NC(=O)c2nc3[nH]c4c(c(=O)n3n2)CCC4)c(C)cc1NC(=O)CCOCCC(=O)N[C@H](C(=O)N[C@@H](CC(N)=O)C(=O)N[C@@H](CCC(=O)O)C(=O)N[C@@H](Cc1ccc(O)cc1)C(=O)N[C@@H](Cc1ccc(O)cc1)C(=O)N[C@H](C(=O)O)C(C)C)[C@@H](C)O [IVMT-Rx-3] (HELM PEPTIDE1{[Cc1cc(NC(=O)c2nc3[nH]c4c(c(=O)n3n2)CCC4)c(C)cc1NC(=O)CCOCCC(=O)[*:2]].T.N.E.Y.Y.V}$$$$V2.0) the “expression of MMP-2 and MMP-9” value (MMP-2 and MMP-9) was “lower expression of MMP-2 and MMP-9”, the “anti-invasive efficacy in comparison with PDZ1i” value (A-375 and C8161.9 cells) was “significantly enhanced the anti-invasive efficacy in comparison with PDZ1i” and the Kd (MDA-9/Syntenin [1]) was 63 µM. For the same compound, the “IL-6, IL-10, IL-16 expression” value (IL-6, IL-10, IL-16 [2]) was “Down-regulation”, the “effect on MDA-9/Syntenin protein expression” value (MDA-9/Syntenin [3]) was “does not affect MDA-9/Syntenin protein expression” and the “binding to Harmonin” value [4] was “did not bind appreciably”. The “IGFBP-2 levels in blood plasma” value (IGFBP-2) was “down regulation”, the “inhibition of proliferation or long-term survival” value [5] was “did not inhibit proliferation or long-term survival” and the “IL-6, IL-10, IL-16 expression” value (IL-6, IL-10, IL-16 [6]) was “Down-regulation”.
